Read-outs that look alike come from different tables or passages of the source.

Experiment [1] concerns Plasmodium falciparum (strain 3D7). Briefly: In vitro anti-Plasmodium falciparum activity (infected erythrocytes, radioactive precursor incorporation). In kind it is cell-based. How it is done: After 48 h of incubation in the absence (control) or in the presence of the compound to be tested, the radioactive precursor is added, and the reaction is continued for another 18 h, then stopped by freezing at −80° C. The macromolecules, including the radiolabeled nucleic acids, are collected on a filter. The incorporated radioactivity is measured with the scintillation counter after addition of scintillation cocktail. The radioactive background noise is measured based on a suspension of healthy erythrocytes (same conditions as for parasite-containing suspensions). The viability of the parasites is expressed as a (nonspecific derived) percentage of the control. […] The IC50 values thus determined are the result of at least two experiments carried out independently in duplicate. Batches A and B correspond to two different syntheses according to the same procedure and carried out in their totality by two different operators, at a six month interval.

The test system of the next experiment is K562 cells. Briefly: Toxicity with respect to K562 cells ([3H]-thymidine incorporation). In kind it is cell-based, human. The conditions noted are these: 3H-thymidine detection; Batch B; 24 h incubation; read-out: Activity against the K562 cells, 3H-Thymidine, Batch B IC50. The procedure: Suspensions of human cells (8000 cells per well) are cultured in complete RPMI medium (RPMI 1640 medium, L-glutamine, penicillin/streptomycin and 10% fetal calf serum) (200 μL) either in the absence of the compound to be tested (controls), or in contact with variable concentrations of said compound.
After 24 h of incubation (or approximately one cell cycle), 0.7 μCi of [^3H]-thymidine (radiolabeled precursor of the synthesis of the nucleic acids) diluted in 30 μL of complete RPMI medium are added to each well. After 6 h of additional incubation, the thymidine incorporation reaction is stopped by freezing at −80° C. As for the determination of the in vitro anti-malarial activity, the macromolecules, including the radiolabeled nucleic acids, are collected on a filter. The incorporated radioactivity is measured with the scintillation counter after addition of scintillation cocktail.
The radioactive background noise is measured based on complete RPMI medium. The viability of the cells is expressed as a (nonspecific derived) percentage of the control. The measurements are analyzed using Excel and Prism software, and the IC50 (concentration capable of in vitro inhibition of 50% of the growth of the cells) is determined graphically.
The IC50 values thus determined are the result of at least two experiments performed independently in duplicate.
(Uptake of a labelled nucleoside into DNA is a usual measure of proliferation.)

Another experiment deals with Babesia divergens. Briefly: In vitro anti-Babesia divergens activity (infected erythrocytes, [3H]-hypoxanthine incorporation). In kind it is cell-based. The conditions noted are these: 16 h contact, read-out: Activity against Babesia divergens IC50. How it is done:
After 16 h of incubation in the absence (control) or in the presence of the compound, the radioactive precursor is added and the reaction is continued for another 8 h and then stopped by freezing at −80° C. As for the determination of the in vitro anti-parasitic activity, the macromolecules, including the radiolabeled nucleic acids, are collected on a filter. The incorporated radioactivity is measured with the scintillation counter after addition of scintillation cocktail. The radioactive background noise is measured based on a suspension of healthy erythrocytes (same conditions as for the parasite-containing suspensions). The viability of the parasites is expressed as a (nonspecific derived) percentage of the control. […] The IC50 values thus determined are the result of at least two experiments performed independently in duplicate.

Another experiment concerns Toxoplasma gondii. The experiment in a line: In vitro anti-toxoplasmosis activity by plaque assay on HFF fibroblast monolayer. The conditions noted are these: 7 days, average of 2 values. In kind it is cell-based. The procedure:
This test is based on the capability of Toxoplasma gondii in its intracellular form (tachyzoite) to bring about the lysis of its host cell (here a monolayer of fibroblasts) and to then infect the neighboring cells so that over time (days) a macroscopically visible hole in the monolayer of cells becomes apparent and its area can be measured. In the 24-well culturing plates, approximately 80 parasites are added to a monolayer of fibroblasts (HFF cells) for 7 days in the presence or absence of drug. The cells are then fixed with 4% paraformaldehyde, and then stained with Giemsa. The cells are visualized under the microscope, and the size of the lysis plaques is measured using the software Zen® (Zeiss). The cells are maintained in culture in complete medium (DMEM+5% fetal calf serum+glutamine+penicillin/streptomycin). The ability of the drug to inhibit the growth of Toxoplasma gondii is proportional to the decrease in the size of the lysis plaque.
The results obtained are collected in Table 4 (average of 2 values) below and in FIG. 1.

The mark [2] stands for this setting: read-out: Activity against P. falciparum (3D7), detection 3H-Hypoxanthine, Batch B IC50.
Where [3] appears, read: Plasmodium falciparum, 3D7, Erythrocyte, 3H-ethanolamine detection, Batch A, 48 h contact, read-out: Activity against P. falciparum (3D7), detection 3H-Ethanolamine, Batch A IC50.
[4] abbreviates: Plasmodium falciparum, 3D7, Erythrocyte, 3H-hypoxanthine detection, Batch A, 48 h contact, read-out: Activity against P. falciparum (3D7), detection 3H-Hypoxanthine, Batch A IC50.
Setting [5] is: read-out: Activity against P. falciparum (3D7), detection 3H-Ethanolamine, Batch A IC50.
The mark [6] stands for this setting: read-out: Activity against P. falciparum (3D7), detection 3H-Hypoxanthine, Batch A IC50.

Consider `CCN(CC)CCCC(C)Nc1ccnc2cc(Cl)ccc12` (stereo not shown) [Chloroquine, reference compound], for which the IC50 in experiment [1] (Plasmodium falciparum, 3D7, Erythrocyte, read-out: Activity against P. falciparum (3D7), detection 3H-Ethanolamine, Batch A IC50) came out at 0.014 µM; in experiment [1] (Plasmodium falciparum, 3D7, Erythrocyte, read-out: Activity against P. falciparum (3D7), detection 3H-Hypoxanthine, Batch A IC50), 0.0145 µM.

As for `COc1nc(N)nc2c1ncn2C[C@@H](O)CCP(=O)(OCCSC(=O)c1ccccc1)OCCSC(=O)c1ccccc1` [Compound 4, 6-O-methyl-9-[(2S)-2-hydroxy-4-bis(S-benzoyl-2-thioethyl)phosphonobutyl]-2-amino Purine], the values for the IC50 (in the experiment on K562 cells; in experiment [1] (setting [2])) were 22 µM and 57 µM, respectively.

As for `COc1nc(N)nc2c1ncn2C[C@H](O)CCP(=O)(OCCSC(=O)c1ccccc1)OCCSC(=O)c1ccccc1` [Compound 6, 6-O-methyl-9-[(2R)-2-hydroxy-4-bis(S-benzoyl-2-thioethyl)phosphonobutyl]-2-aminopurine], the IC50 worked out at 20 µM in the experiment on K562 cells and 62 µM in experiment [1] (setting [2]).

For the molecule `Nc1ncnc2c1ncn2C[C@@H](O)CP(=O)(O)O` [Compound 10, N-9-[(2R)-2-hydroxy-3-phosphonopropyl] adenine], the IC50 in experiment [1] (setting [3]) and in experiment [1] (setting [4]) was above 1000 µM throughout.

As for `Nc1nc2c(ncn2C[C@@H](O)CP(=O)(O)O)c(=O)[nH]1` [Compound 11, N-9-[(2R)-2-hydroxy-3-phosphonopropyl]guanine], the concentration for half-maximal inhibition (IC50) in experiment [1] (setting [3]) was above 1000 µM; in experiment [1] (setting [4]), at least 1000 µM.

On to `Nc1ncc2ncn(CC[C@@H](O)CP(=O)(O)O)c2n1` [Compound 16], for which the IC50 in the experiment on Babesia divergens (Babesia divergens, Erythrocyte) was above 100 µM; in experiment [1] (setting [4]), 62 µM.

For the molecule `O=P(O)(O)C[C@H](O)CCn1cnc2cc(Cl)c(Cl)cc21` [Compound 18], the IC50 was 470 µM with Babesia divergens (Babesia divergens, Erythrocyte) and above 100 µM in experiment [1] (setting [4]).

On to `O=c1[nH]c(=O)c2ncn(CC[C@@H](O)CP(=O)(O)O)c2[nH]1` [Compound 19], for which the 50% inhibitory concentration (IC50) with Babesia divergens (Babesia divergens, Erythrocyte) was above 100 µM; in experiment [1] (setting [4]), above 100 µM.

Consider `O=c1[nH]cnc2c1ncn2CC[C@@H](O)CP(=O)(O)O` [Compound 20], for which the IC50 with Babesia divergens (Babesia divergens, Erythrocyte) was above 100 µM; in experiment [1] (setting [4]), above 1000 µM.

In the case of `O=c1[nH]cnc2c1ncn2CC[C@H](O)CP(=O)(O)O` [Compound 21], the IC50 in the experiment on Babesia divergens (Babesia divergens, Erythrocyte) was above 100 µM; in experiment [1] (setting [4]), above 1000 µM.

Take `O=c1[nH]c(=O)c2ncn(CC[C@H](O)CP(=O)(O)O)c2[nH]1` [Compound 22]: the 50% inhibitory concentration (IC50) with Babesia divergens (Babesia divergens, Erythrocyte) is above 1000 µM; in experiment [1] (setting [4]) it was 910 µM.

For the molecule `N=C(N)c1ccc(OCCCCCOc2ccc(C(=N)N)cc2)cc1` [Pentamidine, reference compound], in the experiment on Babesia divergens (Babesia divergens, Erythrocyte), the IC50 was found to be 0.183 µM.

Consider “N-9-[(2R)-2-hydroxy-3-phosphonobutyl]guanine [Compound 5]”, for which the half-maximal inhibitory concentration (IC50) was determined as 0.48 µM in the experiment with Babesia divergens; 10000 µM in the experiment with K562 cells; 0.043 µM in experiment [1] (setting [5]); 0.058 µM in experiment [1] (setting [6]); 0.0775 µM in experiment [1] (setting [2]). The “Inhibition of the growth of T. gondii” value was 42 % of the controls in the experiment on Toxoplasma gondii (Conc = 5 μM) and 100 % of the controls with Toxoplasma gondii (Conc = 50 μM).

As to “N-9-[(2R)-2-hydroxy-3-phosphonopropyl]2,6-diamino purine [Compound 13]”, the half-inhibitory concentration (IC50) in experiment [1] (setting [5]) is 740 µM; in experiment [1] (setting [6]), 510 µM.

Consider “N-9-[(2S)-2-hydroxy-3-phosphono propyl]guanine [Compound 3]”, for which the IC50 in the experiment on Babesia divergens was 3.6 µM; in the experiment on K562 cells, above 5000 µM; in experiment [1] (setting [5]), 6 µM; in experiment [1] (setting [6]), 3.3 µM; in experiment [1] (setting [2]) it was 7.05 µM. In addition, the figures for the “Inhibition of the growth of T. gondii” value with Toxoplasma gondii (Conc = 5 μM) and in the experiment with Toxoplasma gondii (Conc = 50 μM) were 0 % of the controls and 18 % of the controls, respectively.

In the case of “N-9-[(2S)-2-hydroxy-3-phosphono propyl]guanine [Compound 12]”, the concentration for half-maximal inhibition (IC50) in the experiment with Babesia divergens is above 1000 µM.

Consider “N-9-[(2S)-2-hydroxy-3-phosphonopropyl]2,6-diamino purine [Compound 14]”, for which the IC50 in experiment [1] (setting [5]) stood at 650 µM; in experiment [1] (setting [6]), 595 µM.

“N-9-[(2S)-2-hydroxy-3-phosphonopropyl] adenine [Compound 9]”: the half-inhibitory concentration (IC50) in experiment [1] (setting [5]) and in experiment [1] (setting [6]) was above 1000 µM in each case.

In the case of “N-9[(2R)-2-hydroxy-4-phosphonobutyl]adenine [Compound 2]”, the half-maximal inhibitory concentration (IC50) in experiment [1] (setting [5]) and in experiment [1] (setting [6]) was above 1000 µM each time.

The term IC50 denotes the concentration that inhibits the measured activity by half.

(Values after patent publication US11299506B2, “Acylnucleoside phosphonates, prodrugs thereof and use thereof as medicament” (UNIVERSITE DE MONTPELLIER, priority 2017, dated 2022).)
